Experimental findings from ChEMBL document CHEMBL5634158, “From garden to lab: C-3 chemical modifications of tomatidine unveil broad-spectrum ATP synthase inhibitors to combat bacterial resistance” (Eur J Med Chem, 2023) are described below.

≈ marks a conversion by molar mass, not a printed value.

For assay [1], the system named is Escherichia coli. Briefly: Antibacterial activity against Escherichia coli MC4100 harbouring lptD mutant assessed as reduction in bacterial growth by CLSI based broth microdilution method. It is filed as functional. (Dilution methods test growth across graded concentrations, often in twofold steps.)
Assay [2] relates to Escherichia coli. The assay is described as follows: Antibacterial activity against Escherichia coli ATCC 25922 assessed as reduction in microbial growth incubated for 20 hrs under aerobic condition by CLSI based broth microdilution method. The format is functional.
The test system of assay [3] is Escherichia coli. Briefly: Antibacterial activity against Escherichia coli MC4100 harbouring acrAB mutant assessed as reduction in bacterial growth by CLSI based broth microdilution method. It is filed as functional.
Assay [4] in a line: Inhibition of Escherichia coli ATCC 25922 ATP synthase activity preincubated for 30 mins followed by NADH/ADP addition and measured after 60 mins by luciferin/luciferase luminescence assay.
The test system of assay [5] is Staphylococcus aureus. The assay is described as follows: Antibacterial activity against Staphylococcus aureus ATCC 29213 hemB SCV assessed as reduction in microbial growth incubated for 20 hrs under aerobic condition by CLSI based broth microdilution method. The format is functional.
The subject of assay [6] is Staphylococcus aureus. Briefly: Antibacterial activity against Staphylococcus aureus ATCC 29213 assessed as reduction in microbial growth incubated for 20 hrs under aerobic condition by CLSI based broth microdilution method. It is filed as functional.
The test system of assay [7] is Escherichia coli. The assay is described as follows: Antibacterial activity against Escherichia coli MC4100 assessed as reduction in bacterial growth by CLSI based broth microdilution method. The format is functional.
Assay [8] in a line: Inhibition of Staphylococcus aureus ATCC 29213 ATP synthase activity preincubated for 30 mins followed by NADH/ADP addition and measured after 60 mins by luciferin/luciferase luminescence assay.
Assay [9] relates to Staphylococcus aureus. Briefly: Antibacterial activity against antibiotic resistant methicillin resistant Staphylococcus aureus ATCC BAA-41/USA-100 assessed as reduction in microbial growth incubated for 20 hrs under aerobic condition by CLSI based broth microdilution method. It is filed as functional.
Assay [10] concerns Staphylococcus aureus. The assay is described as follows: Antibacterial activity against antibiotic susceptible Staphylococcus aureus ATCC 29213 hemB SCV assessed as reduction in microbial growth incubated for 20 hrs under aerobic condition by CLSI based broth microdilution method. It is filed as functional.
In assay [11] the test system is Staphylococcus aureus. Briefly: Antibacterial activity against antibiotic resitant/methicillin resistant Staphylococcus aureus ATCC 700699/Mu50 assessed as reduction in microbial growth incubated for 20 hrs under aerobic condition by CLSI based broth microdilution method. It is filed as functional.
The test system of assay [12] is Staphylococcus aureus. Briefly: Antibacterial activity against antibiotic susceptible Staphylococcus aureus ATCC 29213 assessed as reduction in microbial growth incubated for 20 hrs under aerobic condition by CLSI based broth microdilution method. It is filed as functional.
The test system of assay [13] is Escherichia coli. Briefly: Antibacterial activity against Escherichia coli ATCC 25922 assessed as fold decrease in MIC for 20 hrs under aerobic condition by CLSI based broth microdilution method. The format is functional.
Assay [14] deals with Escherichia coli. Briefly: Antibacterial activity against NDM1-producing carbapenem/antibiotic resistant Escherichia coli ATCC BAA-2471 assessed as reduction in microbial growth incubated for 20 hrs under aerobic condition by CLSI based broth microdilution method. The format is functional.
Assay [15] relates to Escherichia coli. Briefly: Antibacterial activity against antibiotic susceptible /colistin resistant Escherichia coli harboring mcr-1 gene assessed as reduction in microbial growth incubated for 20 hrs under aerobic condition by CLSI based broth microdilution method. The format is functional.
Assay [16] concerns Escherichia coli. Briefly: microbe, parasite or virus in culture. As to conditions: 20 h.
Description: Antibacterial activity against antibiotic resistant Escherichia coli producing extended spectrum beta-lactamase KPC assessed as reduction in microbial growth incubated for 20 hrs under aerobic condition by CLSI based broth microdilution method
In assay [17] the test system is Escherichia coli. The assay is described as follows: Antibacterial activity against antibiotic susceptible Escherichia coli ATCC 25922 assessed as reduction in microbial growth incubated for 20 hrs under aerobic condition by CLSI based broth microdilution method. It is filed as functional.
The subject of assay [18] is Escherichia coli. Briefly: Antibacterial activity against antibiotic susceptible Escherichia coli producing extended spectrum beta-lactamase KPC assessed as reduction in microbial growth incubated for 20 hrs under aerobic condition by CLSI based broth microdilution method. It is filed as functional.
For assay [19], the system named is Escherichia coli. The assay is described as follows: Antibacterial activity against NDM1-producing carbapenem resistant/antibiotic susceptible Escherichia coli ATCC BAA-2471 assessed as reduction in microbial growth incubated for 20 hrs under aerobic condition by CLSI based broth microdilution method. It is filed as functional, organism-based.
Assay [20] has as its system Escherichia coli. Briefly: Antibacterial activity against antibiotic/colistin resistant Escherichia coli harboring mcr-1 gene assessed as reduction in microbial growth incubated for 20 hrs under aerobic condition by CLSI based broth microdilution method. The format is functional.
Assay [21] deals with Staphylococcus aureus. Briefly: Antibacterial activity against methicillin resistant Staphylococcus aureus ATCC BAA-41/USA-100 assessed as reduction in microbial growth incubated for 20 hrs under aerobic condition by CLSI based broth microdilution method. The format is functional.
Assay [22] is described as follows: Inhibition of mitochondrial ATP synthase in human HepG2 cells preincubated for 30 mins followed by NADH/ADP addition and measured after 60 mins by luminescence assay. The format is cell-based.
The test system of assay [23] is Escherichia coli. Briefly: Antibacterial activity against NDM1-producing carbapenem-resistant Escherichia coli ATCC BAA-2471 assessed as reduction in microbial growth incubated for 20 hrs under aerobic condition by CLSI based broth microdilution method. It is filed as functional.
The subject of assay [24] is Escherichia coli. Briefly: Antibacterial activity against Escherichia coli producing extended spectrum beta-lactamase CTX-M-15 assessed as reduction in microbial growth incubated for 20 hrs under aerobic condition by CLSI based broth microdilution method. It is filed as functional.
In assay [25] the test system is Staphylococcus aureus. Briefly: Antibacterial activity against methicillin resistant Staphylococcus aureus ATCC 700699/Mu50 assessed as reduction in microbial growth incubated for 20 hrs under aerobic condition by CLSI based broth microdilution method. It is filed as functional.
For assay [26], the system named is Escherichia coli. Briefly: Antibacterial activity against Escherichia coli producing extended spectrum beta-lactamase KPC assessed as reduction in microbial growth incubated for 20 hrs under aerobic condition by CLSI based broth microdilution method. It is filed as functional.
For assay [27], the system named is Escherichia coli. Briefly: Antibacterial activity against colistin resistant Escherichia coli harboring mcr-1 gene assessed as reduction in microbial growth incubated for 20 hrs under aerobic condition by CLSI based broth microdilution method. The format is functional.

The IC50 is the midpoint of a concentration-inhibition curve. Regarding `C[C@H]1CC[C@]2(NC1)O[C@H]1C[C@H]3[C@@H]4CC[C@H]5CC(NCCN)CC[C@]5(C)[C@H]4CC[C@]3(C)[C@H]1[C@@H]2C` (stereo not given in full), the MIC in the assay on Escherichia coli [1] worked out at 0.5 µg/mL (≈ 1.09 µM); with Escherichia coli [2] it was 32 µg/mL; with Escherichia coli [3] it was 8 µg/mL (≈ 17.5 µM); with Staphylococcus aureus [5] it was 0.006 µg/mL; in the assay with Staphylococcus aureus [6], 8 µg/mL; with Escherichia coli [7], 16 µg/mL (≈ 35 µM). For the same compound, inhibition in assay [4] was half-maximal at 1300 nM (IC50).
`O=[N+]([O-])c1ccc(Cl)c2nonc12`: the concentration for half-maximal inhibition (IC50) in assay [4] was 3940 nM; in assay [8] it was 1700 nM.
As for `Cc1onc(-c2ccccc2)c1C(=O)N[C@@H]1C(=O)N2[C@@H]1SC(C)(C)[C@@H]2C(=O)O` [OXACILLIN], the MIC in the assay on Staphylococcus aureus [9] was more than 128 µg/mL; with Staphylococcus aureus [10] it was 0.12 µg/mL; with Staphylococcus aureus [11], more than 128 µg/mL; in the assay on Staphylococcus aureus [12], 0.24 µg/mL.
`C[C@H]1CC[C@]2(NC1)O[C@H]1C[C@H]3[C@@H]4CC[C@H]5CC(NC[C@@H](N)Cc6ccc(Br)cc6)CC[C@]5(C)[C@H]4CC[C@]3(C)[C@H]1[C@@H]2C` (stereo not given in full): the MIC with Escherichia coli [2] is 8 µg/mL; in the assay with Staphylococcus aureus [5] it was not above 0.25 µg/mL; with Staphylococcus aureus [6], 2 µg/mL. Moreover, in the assay on Escherichia coli [13], the “fold change (FC)” value worked out at 2.
As to `C[C@H]1CC[C@]2(NC1)O[C@H]1C[C@H]3[C@@H]4CC[C@H]5CC(NC[C@@H](N)Cc6ccc(-c7ccccc7)cc6)CC[C@]5(C)[C@H]4CC[C@]3(C)[C@H]1[C@@H]2C` (mixture of isomers), the MIC was 2 µg/mL in the assay on Escherichia coli [1]; 8 µg/mL in the assay on Escherichia coli [2]; 8 µg/mL in the assay with Escherichia coli [3]; 2 µg/mL with Staphylococcus aureus [6]; 8 µg/mL with Escherichia coli [7]. This compound also returned a 50% inhibitory concentration (IC50) in assay [4] of 3400 nM.
With `C[C@@H](O)[C@H]1C(=O)N2C(C(=O)O)=C(S[C@@H]3CN[C@H](C(=O)N(C)C)C3)[C@H](C)[C@H]12` [MEROPENEM], the MIC in the assay with Escherichia coli [14] is more than 16 µg/mL; in the assay with Escherichia coli [15], not above 0.03 µg/mL; in the assay with Staphylococcus aureus [9], more than 16 µg/mL; against Escherichia coli [16], 8 µg/mL (≈ 20.9 µM); in the assay with Staphylococcus aureus [10], 0.06 µg/mL; with Staphylococcus aureus [11], more than 16 µg/mL. Besides, the MIC with Staphylococcus aureus [12] is 0.12 µg/mL; in the assay with Escherichia coli [17], not above 0.03 µg/mL.
For the compound COLISTIN, the MIC turned out to be 0.5 µg/mL in the assay on Escherichia coli [18], 1 µg/mL in the assay on Escherichia coli [19], 32 µg/mL with Escherichia coli [20] and 1 µg/mL with Escherichia coli [17].
`C[C@H]1CC[C@]2(NC1)O[C@H]1C[C@H]3[C@@H]4CC[C@H]5CC(NC[C@@H](N)Cc6ccc(Cl)c(Cl)c6)CC[C@]5(C)[C@H]4CC[C@]3(C)[C@H]1[C@@H]2C` (mixture of isomers): the MIC is 2 µg/mL in the assay with Staphylococcus aureus [21]; 2 µg/mL in the assay on Escherichia coli [1]; 4 µg/mL in the assay with Escherichia coli [2]; 8 µg/mL in the assay on Escherichia coli [23]; 4 µg/mL in the assay on Escherichia coli [3]; 0.5 µg/mL in the assay on Staphylococcus aureus [5]. Moreover, the MIC in the assay with Escherichia coli [24] was 4 µg/mL; with Staphylococcus aureus [25], 1 µg/mL; with Escherichia coli [26], 8 µg/mL; in the assay with Escherichia coli [27], 8 µg/mL; in the assay on Staphylococcus aureus [6], 1 µg/mL; in the assay on Escherichia coli [7], 8 µg/mL. Besides, the figures for the IC50 in assay [22], in assay [4] and in assay [8] were 13.9 µM, 1950 nM and 830 nM, respectively.
